Experimental data from patent US9814726B2, “Composition for preventing or treating fatty liver diseases” (LG CHEM, LTD., priority 2014, dated 2017).

Key:
[1] = test system: C57BL/6J Lep(−/−) male (ob/ob) mice; assay: Obese fatty liver model: ob/ob mice on normal chow diet, oral treatment for 4 weeks, liver and serum analysis; assay type: in vivo, mouse
Description: As experimental animals, 6-week-old male ob/+ mouse for control, and 6-week-old C57BL/6J Lep(−/−) male (ob/ob) mice were purchased from Harlan (Indianapolis, Ind.). The purchased mice were maintained under standard condition (25° C., 55% humidity and 12-hour light periodicity) with normal chow diet. 30 mice were divided into 3 groups, 10 mice in each group. Group 1 included 10 C57BL/6J(ob/+ control group) mice, Group 2 was vehicle-treated 10 ob/ob mice treated with saline solution, and Group 3 was a group in which (tetrahydropyran-4-yl)-[2-phenyl-5-(1,1-dioxo-thiomorpholin-4-yl)methyl-1H-indol-7-yl]amine (LG Life Sciences Ltd., Daejeon, Republic of Korea) was treated once a day by 20 mg/kg dosage. Saline solution and (tetrahydropyran-4-yl)-[2-phenyl-5-(1,1-dioxo-thiomorpholin-4-yl)methyl-1H-indol-7-yl]amine solution were orally administered for 4 weeks. After treatment, animals were anesthetized and sacrificed, and livers were rapidly taken and stored for the next analysis. […]

[2] = test system: ob/ob mice with MCD diet; assay: Steatohepatitis model accompanying obesity: ob/ob mice with MCD (methionine choline-deficient) diet; assay type: in vivo, mouse
[3] = ob/ob mice, 20 mg/kg/day, FIG. 2
[4] = ob/ob mice, oral 20 mg/kg once a day, 4 weeks, p<0.001 vs vehicle
[5] = ob/ob mice, oral 20 mg/kg once a day, 4 weeks, vs vehicle
[6] = 20 mg/kg/day, vs vehicle-treated group, FIG. 5A/5B

O=S1(=O)CCN(Cc2cc(NC3CCOCC3)c3[nH]c(-c4ccccc4)cc3c2)CC1 [Comp., (tetrahydropyran-4-yl)-[2-phenyl-5-(1,1-dioxo-thiomorpholin-4-yl)methyl-1H-indol-7-yl]amine]
activation of the mitochondrial respiration chain complexes I, III, IV and V ([1]; ob/ob mice liver, 20 mg/kg/day, FIG. 3): meaningfully increased | OXPHOS complexes I, III, IV and V by BN-PAGE: binding between the complexes ([1]; ob/ob mice treated for 4 weeks, 20 mg/kg/day): enhanced | amount of TBARS (oxidative stress, lipid oxidation) [1, 3]: significant decrease | level of 3-NT (nitrotyrosine) in liver [1, 3]: considerably decreased | amount of TNF-alpha in minced liver samples (ELISA) ([1]; ob/ob mice, 20 mg/kg/day, FIG. 4B): significantly low amount | expression of liver mitochondrial complex I, III, IV and V ([1]; ob/ob mice, 20 mg/kg/day, compared with ob/+ control group, FIG. 3A): remained up to the level of the control group | expression of mRNA of TNF-α in the liver ([1]; ob/ob mice, 20 mg/kg/day, vs vehicle): inhibited | amount of IL-6 mRNA ([1]; ob/ob mice, 20 mg/kg/day, vs vehicle group): no difference | number of 8-OHdG positive liver cells (DNA damage by oxidative stress) ([1]; ob/ob mice, 20 mg/kg/day, vs vehicle, FIG. 2): remarkably low | phosphorylation of NF-κB p65, NF-κB p105, p38 and JNK 1/2 in liver (immunoblotting) ([1]; ob/ob mice, 20 mg/kg/day, vs vehicle, FIG. 4A): significantly decreased | inflammation reaction: infiltration of activated macrophages in liver (immune staining of F4/80 and Cd68) ([1]; ob/ob mice, 20 mg/kg/day, vs vehicle, FIG. 4C and 4D): decreased | fatty tissue in liver (H&E staining) ([1]; ob/ob mice, oral 20 mg/kg once a day, 4 weeks, FIG. 1): remarkably decreased | TG level in the blood serum ([1]; ob/ob mice, oral 20 mg/kg once a day, 4 weeks, between groups (data not shown)): did not show much difference | amount of liver TG [1, 4]: significant decrease | amount of liver cholesterol [1, 4]: significant decrease | ALT value in blood serum [1, 5]: decreased | AST value in blood serum [1, 5]: decreased | Oil-Red O stained area in liver ([1]; ob/ob mice, oral 20 mg/kg once a day, 4 weeks, vs vehicle-treated group): remarkably decreased | amount of ALT in blood serum ([2]; 20 mg/kg/day): remarkably decreased | amount of AST in blood serum ([2]; 20 mg/kg/day): remarkably decreased | liver TG amount ([2]; 20 mg/kg/day (vehicle 400+/−80), FIG. 5C): 210+/−20 mg/g liver | phosphorylation of fibrosis markers (NF-γB p65, NF-κB p105, p38 and JNK 1/2) ([2]; 20 mg/kg/day, FIG. 5D): inhibited | decrease of liver TG amount ([2]; 20 mg/kg/day, vs vehicle, FIG. 5C): about 50% | expression of collagen I (liver fibrosis) [2, 6]: inhibited | intensity of trichrome staining (liver fibrosis) [2, 6]: inhibited
